Reference: ChEMBL document CHEMBL2311454, “Discovery and evaluation of novel inhibitors of mycobacterium protein tyrosine phosphatase B from the 6-Hydroxy-benzofuran-5-carboxylic acid scaffold” (J Med Chem, 2013)
pIC50: −log10 of the molar value. Activity calls are given as the source filed them. The calls are words filed in the database; no cut-off is given here.

What was measured:
[1] = Inhibition of Mycobacterium tuberculosis PTPB expressed in Escherichia coli using pNPP substrate after 5 mins by spectrophotometric analysis
[2] = biological target: T1, Receptor-type tyrosine-protein phosphatase C (Homo sapiens, UniProt P08575); assay: Inhibition of CD45 (unknown origin) expressed in Escherichia coli using pNPP substrate after 5 mins by spectrophotometric analysis
T1 sequence (P08575 whole entry): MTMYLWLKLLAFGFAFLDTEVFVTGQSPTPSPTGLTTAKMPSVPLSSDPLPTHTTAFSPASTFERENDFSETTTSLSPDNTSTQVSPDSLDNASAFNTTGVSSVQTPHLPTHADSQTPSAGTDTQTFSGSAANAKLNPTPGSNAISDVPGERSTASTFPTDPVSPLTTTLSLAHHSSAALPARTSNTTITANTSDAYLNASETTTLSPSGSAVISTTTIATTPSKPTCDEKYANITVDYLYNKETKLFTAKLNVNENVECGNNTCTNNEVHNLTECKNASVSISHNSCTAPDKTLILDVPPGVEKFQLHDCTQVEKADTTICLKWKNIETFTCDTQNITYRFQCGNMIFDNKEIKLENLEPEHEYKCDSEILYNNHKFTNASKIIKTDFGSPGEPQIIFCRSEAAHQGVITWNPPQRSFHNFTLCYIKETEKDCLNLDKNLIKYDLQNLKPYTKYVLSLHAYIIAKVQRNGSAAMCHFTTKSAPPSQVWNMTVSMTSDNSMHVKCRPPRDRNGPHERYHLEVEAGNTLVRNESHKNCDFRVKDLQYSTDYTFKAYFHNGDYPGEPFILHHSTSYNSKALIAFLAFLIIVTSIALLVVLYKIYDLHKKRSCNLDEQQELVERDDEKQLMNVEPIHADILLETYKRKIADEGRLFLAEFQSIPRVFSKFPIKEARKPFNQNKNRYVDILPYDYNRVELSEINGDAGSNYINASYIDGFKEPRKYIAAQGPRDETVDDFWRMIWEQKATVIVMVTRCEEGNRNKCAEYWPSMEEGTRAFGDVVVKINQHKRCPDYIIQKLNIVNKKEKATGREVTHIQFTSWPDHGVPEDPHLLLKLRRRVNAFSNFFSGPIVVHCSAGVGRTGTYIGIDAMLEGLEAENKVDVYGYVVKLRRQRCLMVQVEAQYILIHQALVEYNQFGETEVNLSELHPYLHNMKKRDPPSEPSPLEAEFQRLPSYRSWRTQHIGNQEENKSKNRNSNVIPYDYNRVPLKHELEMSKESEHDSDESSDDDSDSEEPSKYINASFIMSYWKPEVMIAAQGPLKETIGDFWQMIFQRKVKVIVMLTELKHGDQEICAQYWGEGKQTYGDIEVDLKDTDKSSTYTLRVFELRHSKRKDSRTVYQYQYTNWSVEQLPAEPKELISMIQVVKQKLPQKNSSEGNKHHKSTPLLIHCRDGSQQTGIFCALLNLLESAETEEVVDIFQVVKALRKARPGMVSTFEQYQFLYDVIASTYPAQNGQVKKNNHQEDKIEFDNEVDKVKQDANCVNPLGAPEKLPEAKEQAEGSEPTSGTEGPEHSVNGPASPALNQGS

[3] = biological target: T2, Tyrosine-protein phosphatase non-receptor type 1 (Homo sapiens, UniProt P18031); assay: Inhibition of PTP1B (unknown origin) expressed in Escherichia coli using pNPP substrate after 5 mins by spectrophotometric analysis
T2 sequence (P18031 whole entry): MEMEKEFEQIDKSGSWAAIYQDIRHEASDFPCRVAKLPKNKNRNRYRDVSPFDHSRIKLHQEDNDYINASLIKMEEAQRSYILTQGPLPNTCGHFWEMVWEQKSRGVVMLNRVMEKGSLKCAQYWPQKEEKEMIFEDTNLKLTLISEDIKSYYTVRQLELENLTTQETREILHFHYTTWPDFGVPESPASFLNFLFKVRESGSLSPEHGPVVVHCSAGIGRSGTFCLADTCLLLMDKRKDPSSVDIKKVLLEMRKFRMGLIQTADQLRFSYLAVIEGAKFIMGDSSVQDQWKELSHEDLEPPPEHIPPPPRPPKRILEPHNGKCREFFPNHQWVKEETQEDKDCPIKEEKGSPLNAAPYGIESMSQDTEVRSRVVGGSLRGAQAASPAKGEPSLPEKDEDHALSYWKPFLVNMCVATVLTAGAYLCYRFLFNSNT

RAW264.7 [4] = assay: Inhibition of Mycobacterium tuberculosis PTPB expressed in mouse RAW264.7 macrophages assessed as decrease in Akt activity after 1 hr by Western blotting analysis; type: cell-based
[5] = system: Mycobacterium tuberculosis; assay: Inhibition of Mycobacterium tuberculosis PTPB expressed in mouse RAW264.7 macrophages assessed as restoration of IFNgamma-induced IL-6 production after 1 hr by ELISA
[6] = system: Mycobacterium tuberculosis; assay: Inhibition of Mycobacterium tuberculosis PTPB expressed in mouse RAW264.7 macrophages assessed as restoration of IFNgamma-induced p38 activation after 1 hr by Western blotting analysis
RAW264.7 [7] = assay: Inhibition of Mycobacterium tuberculosis PTPB expressed in mouse RAW264.7 macrophages assessed as induction of apoptosis after 1 hr by annexin V-FITC /propidium iodide staining-based flow cytometric analysis; type: cell-based
[8] = system: Mycobacterium tuberculosis; assay: Inhibition of Mycobacterium tuberculosis PTPB expressed in mouse RAW264.7 macrophages assessed as restoration of IFNgamma-induced ERK1/2 activation after 1 hr by Western blotting analysis
RAW264.7 [9] = assay: Inhibition of Mycobacterium tuberculosis PTPB expressed in mouse RAW264.7 macrophages assessed as increase in caspase activity after 1 hr by spectrophotometric analysis; type: cell-based

Structure (SMILES) | pIC50 [1] | pIC50 [2] | pIC50 [3] | inhibition (RAW264.7 [4]) | inhibition [5] | inhibition [6] | inhibition (RAW264.7 [7]) | inhibition [8] | inhibition (RAW264.7 [9])
O=C(O)c1cc2c(C#CCO)c(-c3ccccc3)oc2cc1O | 4.66 | < 4.00 | < 4.00 | – | – | – | – | – | –
O=C(O)c1cc2c(CCc3cccc(C(F)(F)F)c3)c(-c3ccccc3)oc2cc1O | – | 5.00 | 5.13 | – | – | – | – | – | –
C[C@]12CCC(=O)C=C1CC[C@@H]1[C@@H]2CC[C@@]2(C)[C@H]1CC[C@]2(O)C#Cc1c(-c2ccccc2)oc2cc(O)c(C(=O)O)cc12 | 5.29 | < 4.00 | < 4.30 | – | – | – | – | – | –
O=C(O)c1cc2c(CCc3ccc(Oc4ccccc4)cc3)c(-c3ccccc3)oc2cc1O | – | 4.85 | 5.10 | – | – | – | – | – | –
O=C(O)c1cc2c(CCc3ccc(OC(F)(F)F)cc3)c(-c3ccccc3)oc2cc1O | 5.47 | 4.72 | 5.08 | inactive | inactive | inactive | inactive | inactive | inactive
C#Cc1c(-c2ccccc2)oc2cc(O)c(C(=O)O)cc12 | – | 4.10 | < 4.30 | – | – | – | – | – | –
O=C(O)c1cc2c(/C=C\c3cc(F)cc(F)c3)c(-c3ccccc3)oc2cc1O | 5.92 | 4.88 | 5.10 | – | – | – | – | – | –
O=C(O)c1cc2c(CCc3cccc(F)c3)c(-c3ccccc3)oc2cc1O | – | 3.92 | 4.22 | – | – | – | – | – | –
